The text below walks through data of patent publication US20050033056A1, “Hydroxylated indole derivatives and uses thereof” (priority 2001, published 2005).

“Also recorded” adds a separate entry of the source. Where two headings read alike, the source gives them in different places.

The target of the series is T1, cDNA-expressed recombinant CYP2C19 (Homo sapiens, UniProt P33261).
T1 construct: purchased Gentest Corp. (Woburn, Mass.); host or cells: insect cells (microsomal preparation)
The series can be described thus: Apparent Ki with recombinant CYP2C19 (S-mephenyloin 4'-hydroxylation; Dixon plots, SNLR). It is filed as in vitro ADME. The note with it: for Ki: recombinant CYP2C19. The method, then:
If inhibition was detected, the inhibitory potency was determined using recombinant CYPs. Compound 1 appeared to inhibit the activities of CYP2D6 and CYP2C19. Therefore, three concentrations of S-mephenyloin (30, 80, and 200 μM) and bufuralol (5, 10, and 40 μM), and a range of concentrations (0-200 μM) of Compound 1 were used for the construction of Dixon plots and simultaneously nonlinear regression (SNLR) analyses were performed. The incubation conditions and sample preparations were the same as previously described.
4. CYP2C19-mediated S-mephenyloin 4′-hydroxylation (Goldstein et al., Biochemistry 33:1743-1752, 1994): The LC/MS/MS system, including the separation column, described for the bufuralol hydroxylation was used. The isocratic mobile phase, 100 mM formic acid-acetonitrile/75:25, was run at 0.25 ml/minutes. The operation of the LC/MS/MS was controlled by MacChrom (Version 1.6). The MS/MS was operated at positive ESI with a 5.5 kV ionization potential and 100° C. ion source temperature. MRM was applied for the quantification. The MRM transition ions were m/z 235→150 for 4′-hydroxymephenytoin, and m/z […] for the IS R-propranolol.
Data were acquired and analyzed by ChemStation (Version 6.03, Hewlett Packard, Waldbronn, Germany) for 6-, 7-, and 10-hydroxywarfarin and 6-hydroxychlorzoxazone, and MacQuan (Version 1.6, PE Biosystem, Foster City, Calif.) for 1′-hydroxybufuralol and 4′-hydroxymephenytoin. Quantification was based on peak area ratios of metabolites over the respective IS against the respective concentration of the metabolites. The standard curves were generated by linear regression with (6-, 7-, and 10-hydroxywarfarin, 1′-hydroxybufuralol, and 4′-hydroxymephenytoin) or without (6-hydroxychlorzoxazone) a weighting factor (1/x^2). The metabolic rates were determined using Excel (Microsoft Office 97, Microsoft Corporation, Redmond, Wash.) or SigmaPlot (Version 6.00, SPSS Inc. Chicago, Ill.). […]

T1 sequence (P33261 whole entry): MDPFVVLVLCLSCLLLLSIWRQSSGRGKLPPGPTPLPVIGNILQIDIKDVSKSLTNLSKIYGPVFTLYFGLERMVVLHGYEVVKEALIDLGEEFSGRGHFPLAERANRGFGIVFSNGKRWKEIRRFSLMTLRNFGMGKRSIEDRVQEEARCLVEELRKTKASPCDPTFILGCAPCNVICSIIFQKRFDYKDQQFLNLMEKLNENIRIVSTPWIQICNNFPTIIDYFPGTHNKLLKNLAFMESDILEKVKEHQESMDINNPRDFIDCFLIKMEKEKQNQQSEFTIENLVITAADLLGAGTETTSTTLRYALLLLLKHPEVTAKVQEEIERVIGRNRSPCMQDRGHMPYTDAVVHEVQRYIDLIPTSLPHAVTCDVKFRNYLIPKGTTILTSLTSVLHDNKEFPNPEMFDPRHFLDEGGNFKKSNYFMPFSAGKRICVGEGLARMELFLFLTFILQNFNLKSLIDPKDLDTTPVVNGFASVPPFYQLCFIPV

Regarding `CNC(=O)Cc1ccc2ccn(C3CCN(CCc4ccccc4F)CC3)c2c1` [Compound 1, N-methyl-[1-[1-(2-fluorophenethyl)piperidine-4-yl]-1H-indol-6-yl] acetamide], under “Dixon plots and SNLR analyses”, the “type of inhibition of CYP2C19” value is “competitive inhibitor; also recorded: primarily, if not fully, competitive”. Moreover, the Ki was 25 to 45 µM (Dixon plots, S-mephenyloin 30, 80, 200 μM, read-out: apparent Ki, CYP2C19, estimated by Dixon plots) and 48 µM (SNLR, competitive inhibition model, read-out: apparent Ki, CYP2C19 inhibition, determined by SNLR).
